Laboratory results published in patent US20030161893A1, “PTPase inhibitors and methods of using the same” (priority 2001, published 2003).
Where “and” joins values, the source holds several entries; their conditions need not be identical. Equal entries are not always repeated.

Tests used:
[1] = target: T1, PRL-3 (Homo sapiens, UniProt O75365); assay: In vitro PTPase assay, recombinant PRL-3; assay type: biochemical; details: DiFMUP, comparable conditions
T1 construct: cDNAs of human PRL-1, PRL-2 and PRL-3 coding region were derived by RT-PCR from H9 cells; made in house; host or cells: DH5a bacteria (E. coli)
T1 sequence (O75365 whole entry): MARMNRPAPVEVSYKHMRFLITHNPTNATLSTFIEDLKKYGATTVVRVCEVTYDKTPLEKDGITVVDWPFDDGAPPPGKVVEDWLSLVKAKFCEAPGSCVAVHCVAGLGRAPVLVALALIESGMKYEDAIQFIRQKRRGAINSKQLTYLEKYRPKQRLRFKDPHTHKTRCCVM
Excerpt: Sodium stibogluconate, suramin, sodium orth ovanadate and GST fusion protein of SHP-1 have been described previously (Pathak et al., J. Imumol. 167, 3391 (2001)). Meglumine antimonate was obtained from Aventis. cDNAs of human PRL-1, PRL-2 and PRL-3 coding region were derived by RT-PCR from H9 cells (Safai, et al., Lancet 1, 1438 (1984)) and inserted in frame into the pGEX vector. cDNA of PRL-1R86 was generated by recombinant DNA technique using PRL-1 cDNA as template following established procedures (Jiao, et al., Mol. Cell. Biol. 16, 6985 (1996)). GST fusion proteins of the PRL phosphatases were prepared from DH5a bacteria transformed with the pGEX fusion protein constructs as described previously (Yi, et al., Mol. Cell. Biol. 12, 836 (1992)). cDNAs encoding the PRLs tagged at the N-termini with the Flag epitope (Castrucci, et al., J. Virol. 66, 4647 (1992)) were generated via recombinant DNA technique, sequenced to confirm their identities and cloned into the pBabepuro vector (Yang, et al., Blood 91, 3746 (1998)). Anti-Flag monoclonal antibody (M2, Sigma) was purchased from a commercial source. A synthetic phosphotyrosine peptide (Arg-Arg-Leu-Ile-Glu-Asp-Ala-Gle-Tyr-Ala-Ala-Arg-Gly (SEQ ID NO: 3), wherein the tyrosine is phosphorylated; UBI) and DiFMUP (6, 8-difluoro-4-methylumbelliferyl phosphate, Molecular Probes) were purchased as substrates for PTPase assays.
In vitro PTPase assays were used to determine the effects of compounds on recombinant PTPases, following established procedures using a synthetic phosphotyrosine peptide or DiFMUP as the substrate (Pathak et al., J. Imumol. 167, 3391 (2001)). Briefly, individual PTPases (0.1 μg/reaction) in 50 μL of PTPase buffer (50 mM Tris, pH 7.4) were incubated at 22° C. for 10 minutes or as indicated in the absence or presence of inhibitory compounds. Substrates (0.2 mM phosphotyrosine peptide) were then added and allowed to react at 22° C. for 18 hrs. PTPase activity of individual reactions was measured by adding 100 μL of malachite green solution (UBI) and then quantifying the amounts of free phosphate cleaved by the PTPase from the peptide substrate by spectrometry (OD660 nm). PTPase assays using DiFMUP as a substrate were conducted following a previously described procedure (Matter, et al., Biochem. Biophys. Res. Comm. 283, 1061 (2001)). Relative PTPase activities were calculated based on the formula: (PTPase activity in the presence of an inhibitory compound/PTPase activity in the absence of the compound)×100%. To assess the reversibility of PTPase inhibition, GST fusion proteins of the PTPases bound on glutathione beads (Pharmacia) were pre-incubated with cold Tris buffer (50 mM Tris, pH 7.0) or Tris buffer containing the inhibitor at 4° C. for 30 minutes. The beads were then washed three times in cold Tris buffer or not washed prior to subjecting to in vitro PTPase assays.

[2] = test system: HL-60 cells; assay: HL-60 cell differentiation (NBT reduction); assay type: cell-based, human; details: day 6; sodium stibogluconate 400 μg/ml, GM-CSF 25 ng/ml, ATRA
Protocol: (§1) Differentiation of AML cell lines was assessed by their ability to produce superoxide as measured by reduction of NBT to formazan and by analysis of expression of CD11b surface marker by flow cytometry. For NBT reduction, each cell suspension was mixed with an equal volume of solution containing 1 mg/ml of NBT (Sigma) and 2.5 μg/ml of TPA for 30 minutes at 37° C. After incubation, cells containing the purple formazan deposits and cells devoid of NBT-reducing activity (white cells) in each sample were determined by counting 200 cells under microscope. Data is expressed as a percentage based on the following ratio: purple cells/purple+white cells. For analysis of cell surface antigens, cells were exposed to phycoerythrin (PE)-conjugated murine anti-human CD11b (DAKO Corp., Carpinteria, Calif.). Analysis of fluorescence was performed on a FACScan flow cytometer (Beckton Dickinson, Mountain View, Calif.).

[3] = test system: U937 cells; assay: U937 cell differentiation (NBT reduction); assay type: cell-based, human; details: day 6; sodium stibogluconate 400 μg/ml, GM-CSF 25 ng/ml, ATRA
Protocol: as §1

[4] = test system: NB4 cells; assay: NB4 cell growth (MTT), cell cycle and Annexin V; assay type: cell-based, human; details: 3 days; sodium stibogluconate 250 μg/ml, ATRA 1 μM
Protocol: The NB4 cell line (Lanotte et al., Blood 77, 1080 (1991)) was a gift from Dr. Dan Lindner of the Cleveland Clinic Foundation. […] and U937 cell lines were purchased from American Type Culture Collection (Rockville, Md.). These human […] cell lines were maintained in RPMI 1640 medium supplemented with 10% fetal calf serum (FCS). For cell proliferation assays, cells were cultured at 37° C. in 10% FCS medium containing various amounts of sodium stibogluconate for 6 days. The cell numbers in the cultures were determined by an MTT assay as described previously in Mosmann, J. Imunol. Methods 65, 55 (1983).
The cell cycle was analyzed by flow cytometry after 3 days of culture of NB4 cells in the absence or presence of sodium stibogluconate (250 μg/ml) or ATRA (1 μM). Briefly, the cells were fixed in cold ethanol and incubated for 30 minutes at 4° C. in the dark with a solution of […] propidium iodide, 1 mg/ml RNase and 0.1% NP-40. Analysis was performed immediately after staining using the CELLFIT program (Becton Dickinson, Mountain View, Calif.).
Annexin V staining of exposed membrane phospholipid phosphatidylserine (PS) was done using the Annexin V assay kit (Pharmingen, San Diego, Calif.). Briefly, NB4 cells were cultured in the 10% FCS RPMI 1640 medium in the absence or presence of sodium stibogluconate (250 μg/ml) or ATRA (1 μM) for 3 days. Cells were then washed in PBS twice and stained in binding buffer (10 mM Hepes, pH 7.4; 140 mM NaCl; 2.5 mM CaCl2) containing Annexin V-FITC and propidium iodide for 15 min. The reaction was stopped by adding 10 volumes of binding buffer and analyzed by FACS (Becton Dickinson Facsvantage).

[5] = target: T2, SHP-1 (Mus musculus, UniProt P29351); assay: In vitro PTPase assay, GST/SHP-1 fusion protein; assay type: biochemical
T2 construct: made in house
T2 sequence (P29351 whole entry, the tested form may be a part): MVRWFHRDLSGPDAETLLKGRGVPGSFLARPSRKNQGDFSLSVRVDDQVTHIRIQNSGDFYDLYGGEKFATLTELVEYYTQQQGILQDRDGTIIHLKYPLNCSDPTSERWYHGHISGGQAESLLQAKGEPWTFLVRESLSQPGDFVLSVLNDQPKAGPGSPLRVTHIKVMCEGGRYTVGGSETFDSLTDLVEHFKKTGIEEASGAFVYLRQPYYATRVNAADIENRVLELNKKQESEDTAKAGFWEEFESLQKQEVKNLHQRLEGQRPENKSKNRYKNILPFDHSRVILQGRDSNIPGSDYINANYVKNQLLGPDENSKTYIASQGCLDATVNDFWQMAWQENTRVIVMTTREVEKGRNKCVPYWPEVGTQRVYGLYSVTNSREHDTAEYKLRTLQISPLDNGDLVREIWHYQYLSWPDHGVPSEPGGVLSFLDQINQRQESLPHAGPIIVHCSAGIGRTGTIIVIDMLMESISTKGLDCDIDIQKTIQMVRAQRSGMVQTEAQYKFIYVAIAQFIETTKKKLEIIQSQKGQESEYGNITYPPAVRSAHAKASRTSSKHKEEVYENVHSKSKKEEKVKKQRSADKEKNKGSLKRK
Protocol: In vitro PTPase activities were measured using the commercial protein tyrosine phosphatase assay kit (Upstate Biotechnology, Inc. (“UBI”)) following established procedure known to one of skill in the art. […] 100 μl of Malachite Green solution was added and incubated for 5 minutes, and the absorbance at 660 nm was measured after 5 minutes.
The beads were then either subjected to in vitro PTPase assays or washed 3 times in Tris buffer then subjected to in vitro PTPase assays.
Briefly, individual PTPases (0.1 μg/reaction) in 50 μL of PTPase buffer (50 mM Tris, pH 7.4) were incubated at 22° C. for 10 minutes or as indicated in the absence or presence of inhibitory compounds. […] […] […] Relative PTPase activities were calculated based on the formula: (PTPase activity in the presence of an inhibitory compound/PTPase activity in the absence of the compound)×100%. To assess the reversibility of PTPase inhibition, GST fusion proteins of the PTPases bound on glutathione beads (Pharmacia) were pre-incubated with cold Tris buffer (50 mM Tris, pH 7.0) or Tris buffer containing the inhibitor at 4° C. for 30 minutes. The beads were then washed three times in cold Tris buffer or not washed prior to subjecting to in vitro PTPase assays.

[6] = test system: GSTm8; assay: In vitro PTPase assay, GSTm8; assay type: biochemical; details: 3-4 μg/ml or 10-100 μg/ml
[7] = target: T3, MKP1 (Homo sapiens, UniProt P28562); assay: In vitro PTPase assay, GST/MKP1 fusion protein; assay type: biochemical
T3 construct: a pGEX construct containing the coding region of MKP1 cDNA derived by RT-PCR; made in house; host or cells: DH5a bacteria (E. coli)
T3 sequence (P28562 1-367): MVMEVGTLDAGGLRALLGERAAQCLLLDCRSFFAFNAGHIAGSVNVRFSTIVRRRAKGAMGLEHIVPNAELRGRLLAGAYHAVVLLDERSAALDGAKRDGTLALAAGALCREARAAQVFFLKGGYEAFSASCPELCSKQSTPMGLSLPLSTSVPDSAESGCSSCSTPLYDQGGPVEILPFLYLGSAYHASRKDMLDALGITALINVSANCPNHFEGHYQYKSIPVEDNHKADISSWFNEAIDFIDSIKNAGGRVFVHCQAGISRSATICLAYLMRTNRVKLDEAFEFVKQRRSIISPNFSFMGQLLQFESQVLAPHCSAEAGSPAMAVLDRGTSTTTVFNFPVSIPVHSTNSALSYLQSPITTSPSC

[8] = test system: Jak2/Stat5; assay: IL-3-induced Jak2/Stat5 tyrosine phosphorylation in Baf3 cells; assay type: cell-based, murine
Protocol: For induction of cellular protein phosphorylation by sodium stibogluconate or pervanadate, Baf3 cells were incubated in 0.1% FCS-RPMI 1640 medium at 37° C. for 16 hours. The cells were then washed twice in RPMI 1640 medium and incubated with sodium stibogluconate or pervanandate (0.1 mM) for various times prior to termination by lysing cells in cold lysis buffer (50 mM Tris, pH 7.4; 150 mM NaCl; 0.2 mM Na3VO4; 20 mm NaF; 1% Nonidet P-40; 2 mM PMSF; 20 μg/ml of Aprotinin and 1 mM of sodium molybdic acid). To determine the effect of sodium stibogluconate or potassium antimonyl tartrate on IL-3-induced Jak/Stat phosphorylation, Baf3 cells were deprived of the growth factor for 16 hours in 0.1% FCS RPMI 1640 medium and then incubated with or without sodium stibogluconate or potassium antimonyl tartrate for 10 minutes. IL-3 was next added to the cell suspension and incubated for various times. The Cells were then harvested and lysed in cold lysis buffer at 4° C. for 45 minutes. Total cell lysates (TCL) were separated in SDS-PAGE gels, blotted onto nitrocellulose membrane (Schleicher & Schuell), probed with specific antibodies and detected using an enhanced chemiluminescence kit (ECL, Amersham, Arlington Heights, Ill.).

[9] = test system: Baf3 cells; assay: Baf3 cell proliferation assay; assay type: cell-based, murine
Protocol: The murine hematopoietic cell line Baf3 was maintained in RPMI 1640 medium supplemented with 10% fetal calf serum (FCS) and murine IL-3 (20 units/ml) as described previously in Damen et al., J. Biol. Chem. 270, 23402 (1995). Human myeloid cell line TF-1 was maintained in RPMI 1640 supplemented with 10% FCS and 40 ng/ml of recombinant human GM-CSF as described previously in Thomassen et al., Clin. Immunol. 95, 85 (2000). For cell proliferation assays, cells were washed in 10% FCS medium twice, resuspended in 10% FCS medium, incubated at 37° C. for 16 hours, and then cultured at 37° C. in 10% FCS medium containing various amounts of cytokines, sodium stibogluconate, or potassium antimonyl tartrate for 3-6 days as indicated. The cell numbers in proliferation assays were determined by an MTT assay or by microscopic cell counting as indicated.

[10] = target: T4, PTP1B (Homo sapiens, UniProt P18031); assay: In vitro PTPase assay, GST/PTP1B fusion protein; assay type: biochemical; details: 1-1,000 μg/ml
T4 construct: purchased Upstate Biotechnology Inc. (Lake Placid, N.Y.)
T4 sequence (P18031 whole entry, species assumed, the tested form may be a part): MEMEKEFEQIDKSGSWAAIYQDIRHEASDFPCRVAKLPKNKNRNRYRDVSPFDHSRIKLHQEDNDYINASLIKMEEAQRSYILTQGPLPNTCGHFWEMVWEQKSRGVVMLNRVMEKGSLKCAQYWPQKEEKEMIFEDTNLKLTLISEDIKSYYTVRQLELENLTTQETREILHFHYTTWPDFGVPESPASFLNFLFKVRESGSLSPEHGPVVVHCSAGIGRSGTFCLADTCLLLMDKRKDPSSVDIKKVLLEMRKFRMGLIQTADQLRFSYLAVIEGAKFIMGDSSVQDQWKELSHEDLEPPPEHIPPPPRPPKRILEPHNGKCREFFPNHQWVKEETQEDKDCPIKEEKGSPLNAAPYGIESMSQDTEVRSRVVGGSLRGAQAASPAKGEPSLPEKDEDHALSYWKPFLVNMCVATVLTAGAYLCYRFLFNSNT
Protocol: In vitro PTPase activities were measured using the commercial protein tyrosine phosphatase assay kit (Upstate Biotechnology, Inc. (“UBI”)) following established procedure known to one of skill in the art. This assay measures the in vitro dephosphorylation of a synthetic phosphotyrosine peptide of the sequence Arg-Arg-Leu-Ile-Glu-Asp-Ala-Gle-Tyr-Ala-Ala-Arg-Gly, wherein the tyrosine is phosphorylated (SEQ ID NO: 3). Briefly, 0.01 μg of GST/PTPase fusion proteins was incubated in 50 μl of Tris buffer (10 mM Tris, pH 7.4) containing different concentrations of inhibitors or chemicals (0-1,000 μg/ml) at 22° C. for 10 minutes, followed by addition of 0.2 mM of the phosphotyrosine peptide and incubation at 22° C. for 18 hours. 100 μl of Malachite Green solution was added and incubated for 5 minutes, and the absorbance at 660 nm was measured after 5 minutes.

[Na+].[Na+].[Na+].[O]=[V]([O-])([O-])[O-] [sodium orthovanadate]
inhibition of PRL-3 with DiFMUP substrate [1]: less effective

CC1=C(/C=C/C(C)=C/C=C/C(C)=C/C(=O)O)C(C)(C)CCC1 [ATRA, All-trans-retinoic acid]
NBT-positive (differentiated) HL-60 cells [2]: 90% | NBT-positive (differentiated) U937 cells [3]: 72% and 73% | cell cycle of NB4 cells [4]: arrested at GI phase

c1ccc([C@H]2CN3CCSC3=N2)cc1 [levamisole]
inhibitory activity against SHP-1 ([5]; 3-4 μg/ml or 10-100 μg/ml): no obvious inhibitory activity | inhibitory activity against GSTm8 [6]: no obvious inhibitory activity | inhibition of MKP1 [7]: substantial inhibition

Cc1ccc(C(=O)Nc2ccc(S(=O)(=O)O)c3cc(S(=O)(=O)O)cc(S(=O)(=O)O)c23)cc1NC(=O)c1cccc(NC(=O)Nc2cccc(C(=O)Nc3cc(C(=O)Nc4ccc(S(=O)(=O)O)c5cc(S(=O)(=O)O)cc(S(=O)(=O)O)c45)ccc3C)c2)c1 [Suramin]
inhibition of SHP-1 compared with sodium stibogluconate ([5]; comparable conditions): less effective | reversibility of SHP-1 inhibition by washing ([5]; pre-incubated at 4° C. 30 minutes, beads washed 3 times): almost completely removed by the washing process | inhibition of PRL-3 with DiFMUP substrate [1]: less effective

O.O.O.O=C([O-])[C@H]([O-])[C@@H]([O-])C(=O)[O-].O=C([O-])[C@H]([O-])[C@@H]([O-])C(=O)[O-].[K+].[K+].[Sb+3].[Sb+3] [potassium antimonyl tartrate]
IL-3-induced Stat5 phosphorylation [8]: failed to enhance | inhibition of SHP-1 ([5]; 1-1,000 μg/ml): no detectable inhibition | toxicity against Baf3 cells [9]: marked toxicity | IL-3-induced proliferation of Baf3 cells ([9]; IL-3 10 units/ml, three days): failed to enhance | inhibition of PTP1B [10]: no detectable inhibition
